Assay results as given in ChEMBL document CHEMBL1201862, “PubChem BioAssay data set” (2004).
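Five concentrations, 48 hours, 96-well plates. GI50: concentration for 50% inhibition of growth.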 Calls of active or inactive are those of the source. No stated cut-off is given here; in the data, active = GI50 up to about 1.1 µM and inactive = higher.

How the values were obtained:
Test in all cases: inhibition of tumour cell growth, NCI panel, 48 h
A549 = tested on: A549
HCC 2998 = tested on: HCC 2998
HCT-116 = tested on: HCT-116
HOP-62 = tested on: HOP-62
HT-29 = tested on: HT-29
K562 = tested on: K562
MOLT-4 = tested on: MOLT-4
NCI-H23 = tested on: NCI-H23
NCI-H460 = tested on: NCI-H460
OVCAR-4 = tested on: OVCAR-4
OVCAR-5 = tested on: OVCAR-5
SF-268 = tested on: SF-268
SF-295 = tested on: SF-295
SN12C = tested on: SN12C
SNB-75 = tested on: SNB-75
U-251 = tested on: U-251
UACC-257 = tested on: UACC-257
UACC-62 = tested on: UACC-62
UO-31 = tested on: UO-31
NCI-H522 = tested on: NCI-H522

SMILES: Cc1cc(C)c(S(=O)(=O)N(CCCCCN)OCCCN)c(C)c1
- GI50 (A549): 19 µM (inactive)
- GI50 (HCC 2998): 7.14 µM (inactive)
- GI50 (HCT-116): 17.9 µM (inactive)
- GI50 (HOP-62): 16.5 µM (inactive)
- GI50 (HT-29): 14.1 µM (inactive)
- GI50 (K562): 17 µM (inactive)
- GI50 (MOLT-4): 14.4 µM (inactive)
- GI50 (NCI-H23): 18.3 µM (inactive)
- GI50 (NCI-H460): 16.8 µM (inactive)
- GI50 (OVCAR-4): 21.5 µM (inactive)
- GI50 (OVCAR-5): 17.9 µM (inactive)
- GI50 (SF-268): 20.3 µM (inactive)
- GI50 (SF-295): 15.1 µM (inactive)
- GI50 (SN12C): 18.1 µM (inactive)
- GI50 (SNB-75): 15.3 µM (inactive)
- GI50 (U-251): 18.3 µM (inactive)
- GI50 (UACC-257): 17.1 µM (inactive)
- GI50 (UACC-62): 17.7 µM (inactive)
- GI50 (UO-31): 14.1 µM (inactive)

SMILES: COc1ccc(N2C(Cl)C(=O)C2c2c[nH]c3ccccc23)cc1 (stereo not given)
- GI50 (A549): > 100 µM (inactive)
- GI50 (HCT-116): > 100 µM (inactive)
- GI50 (HOP-62): > 100 µM (inactive)
- GI50 (HT-29): > 100 µM (inactive)
- GI50 (K562): 94.8 µM (inactive)
- GI50 (MOLT-4): > 100 µM (inactive)
- GI50 (NCI-H23): > 100 µM (inactive)
- GI50 (NCI-H460): > 100 µM (inactive)
- GI50 (NCI-H522): > 100 µM (inactive)
- GI50 (OVCAR-4): > 100 µM (inactive)
- GI50 (OVCAR-5): 80.9 µM (inactive)
- GI50 (SF-268): > 100 µM (inactive)
- GI50 (SF-295): > 100 µM (inactive)
- GI50 (SN12C): > 100 µM (inactive)
- GI50 (SNB-75): > 100 µM (inactive)
- GI50 (U-251): > 100 µM (inactive)
- GI50 (UACC-257): > 100 µM (inactive)
- GI50 (UACC-62): > 100 µM (inactive)
- GI50 (UO-31): 51.9 µM (inactive)

SMILES: CC(=O)c1c(-c2ccco2)c(C#N)c(=S)n(C2OC(CO)C(O)C(O)C2O)c1C (stereo not given)
- GI50 (A549): > 100 µM (inactive)
- GI50 (HCT-116): > 100 µM (inactive)
- GI50 (HOP-62): > 100 µM (inactive)
- GI50 (HT-29): > 100 µM (inactive)
- GI50 (K562): 95.5 µM (inactive)
- GI50 (MOLT-4): 47.2 µM (inactive)
- GI50 (NCI-H23): > 100 µM (inactive)
- GI50 (NCI-H460): > 100 µM (inactive)
- GI50 (OVCAR-4): 75 µM (inactive)
- GI50 (OVCAR-5): > 100 µM (inactive)
- GI50 (SF-268): > 100 µM (inactive)
- GI50 (SF-295): > 100 µM (inactive)
- GI50 (SN12C): 71.3 µM (inactive)
- GI50 (SNB-75): 47.5 µM (inactive)
- GI50 (U-251): 51.1 µM (inactive)
- GI50 (UACC-257): > 100 µM (inactive)
- GI50 (UACC-62): 78.9 µM (inactive)
- GI50 (UO-31): 56.6 µM (inactive)

SMILES: O=C(CCl)NNC1=Nc2ccc(Cl)cc2SC1
- GI50 (A549): 9.33 µM (inactive)
- GI50 (HCC 2998): 5.4 µM (inactive)
- GI50 (HCT-116): 1.64 µM (inactive)
- GI50 (HOP-62): 17.7 µM (inactive)
- GI50 (HT-29): 1.85 µM (inactive)
- GI50 (K562): 1.87 µM (inactive)
- GI50 (MOLT-4): 1.12 µM (active)
- GI50 (NCI-H23): 2.47 µM (inactive)
- GI50 (NCI-H460): 6.79 µM (inactive)
- GI50 (NCI-H522): 0.553 µM (active)
- GI50 (OVCAR-4): 2.12 µM (inactive)
- GI50 (OVCAR-5): 2.26 µM (inactive)
- GI50 (SF-268): 1.69 µM (inactive)
- GI50 (SF-295): 15.1 µM (inactive)
- GI50 (SN12C): 1.95 µM (inactive)
- GI50 (SNB-75): 2.16 µM (inactive)
- GI50 (U-251): 2.15 µM (inactive)
- GI50 (UACC-257): 3.23 µM (inactive)
- GI50 (UACC-62): 2.12 µM (inactive)
- GI50 (UO-31): 1.86 µM (inactive)

SMILES: CN(C(=O)c1ccccc1)c1ccc2c(c1)C(=O)c1ccccc1C2=O
- GI50 (HCC 2998): > 100 µM (inactive)
- GI50 (HCT-116): > 100 µM (inactive)
- GI50 (HOP-62): > 100 µM (inactive)
- GI50 (HT-29): > 100 µM (inactive)
- GI50 (K562): > 100 µM (inactive)
- GI50 (MOLT-4): > 100 µM (inactive)
- GI50 (NCI-H23): > 100 µM (inactive)
- GI50 (NCI-H460): > 100 µM (inactive)
- GI50 (NCI-H522): > 100 µM (inactive)
- GI50 (OVCAR-4): > 100 µM (inactive)
- GI50 (OVCAR-5): > 100 µM (inactive)
- GI50 (SF-268): > 100 µM (inactive)
- GI50 (SF-295): > 100 µM (inactive)
- GI50 (SN12C): > 100 µM (inactive)
- GI50 (U-251): > 100 µM (inactive)
- GI50 (UACC-257): > 100 µM (inactive)
- GI50 (UACC-62): > 100 µM (inactive)
- GI50 (UO-31): > 100 µM (inactive)

SMILES: CCCCCn1cc2c3c(cccc31)C1C=C(C)CN(C)[C@@H]1C2.Cc1ccc(C(=O)OC(C(=O)O)C(OC(=O)c2ccc(C)cc2)C(=O)O)cc1 (stereo not given)
- GI50 (A549): 9.33 µM (inactive)
- GI50 (HCC 2998): 2.6 µM (inactive)
- GI50 (HCT-116): 4.04 µM (inactive)
- GI50 (HOP-62): 12.7 µM (inactive)
- GI50 (HT-29): 3.4 µM (inactive)
- GI50 (K562): 2.51 µM (inactive)
- GI50 (MOLT-4): 4.24 µM (inactive)
- GI50 (NCI-H23): 3.37 µM (inactive)
- GI50 (NCI-H460): 3.89 µM (inactive)
- GI50 (NCI-H522): 3.44 µM (inactive)
- GI50 (OVCAR-4): 5.96 µM (inactive)
- GI50 (OVCAR-5): 9.89 µM (inactive)
- GI50 (SF-268): 11 µM (inactive)
- GI50 (SF-295): 6.17 µM (inactive)
- GI50 (SN12C): 13 µM (inactive)
- GI50 (SNB-75): 5.42 µM (inactive)
- GI50 (U-251): 7.13 µM (inactive)
- GI50 (UACC-257): 4.21 µM (inactive)
- GI50 (UACC-62): 5.25 µM (inactive)
- GI50 (UO-31): 3.86 µM (inactive)

SMILES: CC1(C(=O)O)CCC(C(=O)O)C(C)(C)O1 (stereo not given)
- GI50 (A549): > 100 µM (inactive)
- GI50 (HCC 2998): > 100 µM (inactive)
- GI50 (HCT-116): > 100 µM (inactive)
- GI50 (HOP-62): 4.9 µM (inactive)
- GI50 (HT-29): > 100 µM (inactive)
- GI50 (K562): > 100 µM (inactive)
- GI50 (MOLT-4): > 100 µM (inactive)
- GI50 (NCI-H23): > 100 µM (inactive)
- GI50 (NCI-H460): > 100 µM (inactive)
- GI50 (NCI-H522): > 100 µM (inactive)
- GI50 (OVCAR-4): > 100 µM (inactive)
- GI50 (OVCAR-5): > 100 µM (inactive)
- GI50 (SF-268): > 100 µM (inactive)
- GI50 (SF-295): > 100 µM (inactive)
- GI50 (SN12C): > 100 µM (inactive)
- GI50 (SNB-75): > 100 µM (inactive)
- GI50 (U-251): > 100 µM (inactive)
- GI50 (UACC-257): > 100 µM (inactive)
- GI50 (UACC-62): > 100 µM (inactive)
- GI50 (UO-31): > 100 µM (inactive)

SMILES: N#C/C(=C\c1ccncc1)c1csc2ccccc12
- GI50 (A549): 23.4 µM (inactive)
- GI50 (HCC 2998): 17.4 µM (inactive)
- GI50 (HCT-116): 16.6 µM (inactive)
- GI50 (HOP-62): 24.8 µM (inactive)
- GI50 (HT-29): 18.6 µM (inactive)
- GI50 (K562): 20.2 µM (inactive)
- GI50 (MOLT-4): 15.5 µM (inactive)
- GI50 (NCI-H23): 25.2 µM (inactive)
- GI50 (NCI-H460): 24.9 µM (inactive)
- GI50 (NCI-H522): 17.5 µM (inactive)
- GI50 (OVCAR-4): 26.2 µM (inactive)
- GI50 (OVCAR-5): 42.3 µM (inactive)
- GI50 (SF-268): 22.9 µM (inactive)
- GI50 (SF-295): 32.4 µM (inactive)
- GI50 (SN12C): 23.6 µM (inactive)
- GI50 (SNB-75): 24.4 µM (inactive)
- GI50 (U-251): 23.5 µM (inactive)
- GI50 (UACC-257): 23.7 µM (inactive)
- GI50 (UACC-62): 22.1 µM (inactive)
- GI50 (UO-31): 24.9 µM (inactive)

SMILES: COc1cc(C2C(Cl)C(=O)N2NC(=O)c2ccccc2O)ccc1O (stereo not given)
- GI50 (A549): > 100 µM (inactive)
- GI50 (HCC 2998): > 100 µM (inactive)
- GI50 (HCT-116): > 100 µM (inactive)
- GI50 (HT-29): > 100 µM (inactive)
- GI50 (K562): > 100 µM (inactive)
- GI50 (MOLT-4): > 100 µM (inactive)
- GI50 (NCI-H23): > 100 µM (inactive)
- GI50 (NCI-H460): > 100 µM (inactive)
- GI50 (NCI-H522): > 100 µM (inactive)
- GI50 (SF-268): > 100 µM (inactive)
- GI50 (SF-295): > 100 µM (inactive)
- GI50 (SN12C): > 100 µM (inactive)
- GI50 (U-251): > 100 µM (inactive)
- GI50 (UACC-257): > 100 µM (inactive)
- GI50 (UACC-62): > 100 µM (inactive)
- GI50 (UO-31): > 100 µM (inactive)
